The record followed here is patent EP4445957A1, “ANTIBACTERIAL COVALENT PEPTIDE INHIBITORS” (priority 2023, dated 2024).

The target in one assay is EcH175GSC (Escherichia coli, UniProt P0A988, H175G). The assay is described as follows: Isothermal Titration Calorimetry (ITC/kinITC), H175G mutant sliding clamp. Type of assay: binding, E. coli. Conditions: for ΔΔH (ΔH reduction): H175G SC mutant compared to EcwtSC, 25 °C; for ΔΔH (ΔH reduction) / -TΔS / ΔG / ΔH: R1 buffer; for -TΔS / ΔG / ΔH: 25 °C (298.15K). The procedure: (§1) ITC experiments were performed using an iTC200 or a PEAQ-ITC instrument (Microcal Malvern Panalytical). Peptides (300 or 600 µM) were titrated at 25 °C by sequential injections (usually 2 µL each) into an SC solution (30 or 60 µM). Data were corrected for the heat of injection by subtracting the signal of the titration of peptides into protein-free buffer solution either R1 buffer ([4-(2-hydroxyethyl)piperazine-1-ethanesulfonic acid (HEPES) 10 mM pH 7.4, NaCl 0.15 M, EDTA 3 mM] or AcNH4 pH7.4, 150 mM). Each titration was performed at least twice: the exact number of the experiments performed with each peptide is indicated in Tables 1-6. Reported data are mean values (± SD) of all experiments. Analyses of the experimental data were performed, following a classical treatment with AFFINImeter software (https://www.affinimeter.com; S4S, Santiago de Compostela, Spain). In addition, kinetic information was obtained in some cases with kinITC as implemented in software AFFINImeter (D. Burnouf et al., J. Am. Chem. Soc. 2012, 134, 559-565; and P. Dumas et al., in Methods Enzymol., Elsevier, 2016, pp. 157-180).
For orientation: Isothermal titration calorimetry measures the heat released or taken up as one component is titrated into another.

A further assay deals with EcwtSC (Escherichia coli, UniProt P0A988). In words: Isothermal Titration Calorimetry (ITC/kinITC), wild-type sliding clamp. Type of assay: binding, E. coli. Here is the method:
as §1, with “Peptides (300 or 600 µM) were titrated at 25 °C by sequential injections (usually 2 µL each) into an SC solution (30 or 60 µM).” left out

A further assay has as its target T1, EcSC (Escherichia coli, UniProt P0A988).
T1 construct: compatible with the molecular weight of ^EcSC monomer (40.6 kDa); endogenous in cells; host or cells: E. coli whole cell lysate
The assay is described as follows: Covalent adduct formation monitored by mass spectrometry, kinetic constants kinact. The format is biochemical, E. coli. Conditions: for formation of covalent adducts: reaction monitored by mass spectrometry. The procedure: We consider the following two-steps reaction model to describe the binding of the peptide to SC and the covalent bond formation to the His 175 residue: • First step: the peptides bind reversibly to the SC binding site • Second: the formation of the covalent bond. [drawing 31]
Overall, no major effect of the incorporation of the warheads on the binding affinity was observed on the whole series of the TCls. […] Then, kinetic constants (kinact) of compounds 1 and 2 were determined at 22°C and 37°C (Table 7, entries 4 and 7).

Where [1] appears, read: buffer AcNH4 pH 7.4, 150 mM, 295.15 K (22 °C).
[2] abbreviates: buffer AcNH4 pH 7.4, 150 mM, 310.15 K (37 °C).
The mark [3] stands for this setting: buffer AcNH4 pH 7.4, 150 mM, 310.15 K (37 °C), read-out: KD.
Setting [4] is: buffer R1 (X 1), 295.15 K (22 °C).
Setting [5] is: buffer R1 (X 1), 310.15 K (37 °C).
Setting [6] is: buffer AcNH4 pH 7.4, 150 mM, 295.15 K (22 °C), read-out: KD.

Where two headings read alike, the source gives them in different places. Square brackets hold non-standard residues; d marks the D form. Peptide text beside a SMILES is read from it. * marks the point of attachment. Cha = N[C@@H](CC1CCCCC1)C(=O)O; Crotonyl(E) = C/C=C/C(=O)*; Dap = NC[C@H](N)C(=O)O; Acryloyl = C=CC(=O)*; BrAc = O=C(CBr)*; ClAc = O=C(CCl)*; X1 = CC#CC(=O)*

Usually Kd stands for a measure of binding affinity in units of concentration.

T1 sequence (P0A988 whole entry): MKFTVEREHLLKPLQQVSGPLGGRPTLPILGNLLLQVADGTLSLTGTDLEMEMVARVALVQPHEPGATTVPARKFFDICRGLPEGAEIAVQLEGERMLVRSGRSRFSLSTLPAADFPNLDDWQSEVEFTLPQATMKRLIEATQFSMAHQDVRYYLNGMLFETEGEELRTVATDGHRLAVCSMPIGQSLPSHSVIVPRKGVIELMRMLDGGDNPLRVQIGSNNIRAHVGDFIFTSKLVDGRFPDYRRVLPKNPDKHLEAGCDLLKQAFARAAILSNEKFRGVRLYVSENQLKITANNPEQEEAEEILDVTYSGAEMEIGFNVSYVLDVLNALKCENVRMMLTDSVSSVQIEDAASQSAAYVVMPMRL
EcwtSC, sequence (P0A988 whole entry): as above
EcH175GSC, sequence (P0A988 whole entry H175G): as the sequence (P0A988 whole entry) above, with H175G counted along it

Regarding `CC(=O)N[C@@H](CCC(N)=O)C(=O)N[C@@H](CC1CCCCC1)C(=O)N[C@@H](CNC(=O)CCl)C(=O)N[C@@H](CC(C)C)C(=O)N[C@@H](Cc1ccccc1)C(=O)O` [Peptide 2, Ac-Gln-Cha-Dap(chloroacetamide)-Leu-Phe-OH] (Ac-Q[Cha][Dap](ClAc)LF-OH), at EcH175GSC, the “ΔΔH (ΔH reduction)” value is listed as 3.2 kcal/mol. For the same compound, the “-TΔS” value on EcH175GSC is 1.2 (±0.1) kcal/mol; at EcwtSC (R1 buffer, 25 °C (298.15K)) it was 2.5 (± 0.4) kcal/mol; on EcwtSC (setting [1]), 1.7 (± 1.5) kcal/mol; on EcwtSC (setting [2]) it was 8.1 (± 3.0) kcal/mol; at EcwtSC (setting [4]) it was -0.3 (± 0.1) kcal/mol; on EcwtSC (setting [5]), 2.3 (± 0.9) kcal/mol. The ΔG at EcH175GSC is reported as -8.3 (±0.08) kcal/mol; at EcwtSC (R1 buffer, 25 °C (298.15K)), -9.2 (± 0.1) kcal/mol; at EcwtSC (setting [1]), -9.2 (± 0.1) kcal/mol; at EcwtSC (setting [2]), -8.9 (± 0.4) kcal/mol; at EcwtSC (setting [4]), -9.31 (± 0.03) kcal/mol; at EcwtSC (setting [5]), -9.03 (± 0.23) kcal/mol. For the same compound, the ΔH was -9.6 (±0.1) kcal/mol on EcH175GSC; -11.7 (± 0.4) kcal/mol at EcwtSC (R1 buffer, 25 °C (298.15K)); -10.9 (± 1.5) kcal/mol at EcwtSC (setting [1]); -16.9 (± 2.7) kcal/mol at EcwtSC (setting [2]); -8.9 (± 0.1) kcal/mol at EcwtSC (setting [4]); -11.3 (± 0.8) kcal/mol at EcwtSC (setting [5]). The Kd on EcwtSC (setting [3]) turned out to be 580 nM; on EcwtSC (read-out: KD (nM) at 22 °C (AcONH4 buffer), Table 7, 22 °C, AcONH4 buffer), 146 ± 20 nM. In addition, the “kinact (M^-1. s^-1) at 37 °C (AcONH4 buffer)” value at EcSC (37 °C, AcONH4 buffer, second-order rate constant) worked out at 1.04 ± 0.01 M⁻¹ s⁻¹. At EcSC, the “formation of covalent adducts” value is “form covalent adducts”.

Consider `CC(=O)N[C@@H](CCC(N)=O)C(=O)N[C@@H](CC1CCCCC1)C(=O)N[C@@H](CNC(=O)CBr)C(=O)N[C@@H](CC(C)C)C(=O)N[C@@H](Cc1ccccc1)C(=O)O` [Peptide 4, Ac-Gln-Cha-Dap(bromoacetamide)-Leu-Phe-OH] (Ac-Q[Cha][Dap](BrAc)LF-OH), for which the Kd at EcH175GSC is 730 nM; at EcwtSC (KD (nM) at 22 °C (AcONH4 buffer), Table 7, 22 °C, AcONH4 buffer) it was 111 ± 17 nM; on EcwtSC (KD (nM) at 25°C (Hepes buffer), Table 7, 25°C, Hepes buffer) it was 139 ± 54 nM; on EcwtSC (KD (nM) at 37 °C (AcONH4 buffer), Table 7, 37 °C, AcONH4 buffer), 281 ± 62 nM; on EcwtSC (R1 buffer, 25 °C (298.15K), read-out: KD), 141 nM; on EcwtSC (setting [6]) it was 111 nM. For the same compound, the Kd turned out to be 281 nM on EcwtSC (setting [3]); 96.4 nM at EcwtSC (buffer R1 (X 1), 295.15 K (22 °C), read-out: KD); 273 nM at EcwtSC (buffer R1 (X 1), 310.15 K (37 °C), read-out: KD).

For `CC#CC(=O)NC[C@H](NC(=O)[C@H](CC1CCCCC1)NC(=O)[C@H](CCC(N)=O)NC(C)=O)C(=O)N[C@@H](CC(C)C)C(=O)N[C@@H](Cc1ccccc1)C(=O)O` [Peptide 5, Ac-Gln-Cha-Dap(but-2-ynamide)-Leu-Phe-OH] (Ac-Q[Cha][Dap](X1)LF-OH), the “ΔΔH (ΔH reduction)” value at EcH175GSC is recorded as 2.0 kcal/mol. In addition, the “-TΔS” value is 0.04 (±0.3) kcal/mol at EcH175GSC; 2.1 (± 0.1) kcal/mol on EcwtSC (R1 buffer, 25 °C (298.15K)); 2.7 (± 1.2) kcal/mol on EcwtSC (setting [4]); 6.9 (± 0.4) kcal/mol at EcwtSC (setting [5]). Besides, the ΔG on EcH175GSC is given as -9.7 (±0.1) kcal/mol; on EcwtSC (R1 buffer, 25 °C (298.15K)), -9.8 (± 0.1) kcal/mol; at EcwtSC (setting [4]), -10.5 (± 0.2) kcal/mol; on EcwtSC (setting [5]) it was -10.12 (± 0.03) kcal/mol. Also, the ΔH is recorded as -9.7 (±0.2) kcal/mol at EcH175GSC; -11.8 (± 0.06) kcal/mol at EcwtSC (R1 buffer, 25 °C (298.15K)); -13.1 (± 1.2) kcal/mol at EcwtSC (setting [4]); -17.0 (± 0.4) kcal/mol at EcwtSC (setting [5]).

Consider `C=CC(=O)NC[C@H](NC(=O)[C@H](CC1CCCCC1)NC(=O)[C@H](CCC(N)=O)NC(C)=O)C(=O)N[C@@H](CC(C)C)C(=O)N[C@@H](Cc1ccccc1)C(=O)O` [Peptide 1, Ac-Gln-Cha-Dap(acrylamide)-Leu-Phe-OH] (Ac-Q[Cha][Dap](Acryloyl)LF-OH), for which the “ΔΔH (ΔH reduction)” value at EcH175GSC is listed as 2.1 kcal/mol. Moreover, the “-TΔS” value at EcH175GSC was 3.3 (±0.7) kcal/mol; on EcwtSC (R1 buffer, 25 °C (298.15K)), 3.7 (± 0.02) kcal/mol; on EcwtSC (setting [1]), 2.3 (± 0.7) kcal/mol; on EcwtSC (setting [2]) it was 6.9 (± 1.1) kcal/mol; at EcwtSC (setting [4]) it was 2.1 (± 0.2) kcal/mol; on EcwtSC (setting [5]), 4.9 (± 1.1) kcal/mol. Also, the ΔG on EcH175GSC was -8.3 (±0.1) kcal/mol; at EcwtSC (R1 buffer, 25 °C (298.15K)) it was -9.2 (± 0.07) kcal/mol; at EcwtSC (setting [1]), -9.3 (± 0.3) kcal/mol; at EcwtSC (setting [2]), -8.9 (± 0.1) kcal/mol; at EcwtSC (setting [4]), -9.4 (± 0.2) kcal/mol; at EcwtSC (setting [5]) it was -9.04 (± 0.26) kcal/mol. Further, the ΔH is listed as -11.6 (±0.6) kcal/mol on EcH175GSC; -12.8 (± 0.08) kcal/mol at EcwtSC (R1 buffer, 25 °C (298.15K)); -11.5 (± 0.5) kcal/mol at EcwtSC (setting [1]); -15.9 (± 1.2) kcal/mol on EcwtSC (setting [2]); -11.4 (± 0.4) kcal/mol on EcwtSC (setting [4]); -13.9 (± 0.8) kcal/mol at EcwtSC (setting [5]). For the same compound, the values for the Kd at EcwtSC (setting [6]) and at EcwtSC (setting [3]) were 153 nM and 482 nM, respectively. Also, the “formation of covalent adducts” value on EcSC is reported as “form covalent adducts”.

For the compound `C/C=C/C(=O)NC[C@H](NC(=O)[C@H](CC1CCCCC1)NC(=O)[C@H](CCC(N)=O)NC(C)=O)C(=O)N[C@@H](CC(C)C)C(=O)N[C@@H](Cc1ccccc1)C(=O)O` [Peptide 3, Ac-Gln-Cha-Dap(but-2-enamide)-Leu-Phe-OH] (Ac-Q[Cha][Dap](Crotonyl(E))LF-OH), the “-TΔS” value at EcwtSC (R1 buffer, 25 °C (298.15K)) is 1.1 (± 0.1) kcal/mol; at EcwtSC (setting [1]), 0.79 (± 0.52) kcal/mol; at EcwtSC (setting [2]), 6.31 (±0.02) kcal/mol; on EcwtSC (setting [4]) it was 1.8 (± 0.4) kcal/mol; at EcwtSC (setting [5]) it was 5.8 (± 1) kcal/mol. For the same compound, the ΔG at EcwtSC (R1 buffer, 25 °C (298.15K)) was -9.25 (± 0.01) kcal/mol; at EcwtSC (setting [1]), -9.02 (± 0.2) kcal/mol; on EcwtSC (setting [2]) it was -8.97 (± 0.06) kcal/mol; on EcwtSC (setting [4]), -9.7 (± 0.2) kcal/mol; on EcwtSC (setting [5]), -9.1 (± 0.2) kcal/mol. Besides, the ΔH on EcwtSC (R1 buffer, 25 °C (298.15K)) is on record as -10.4 (± 0.1) kcal/mol; on EcwtSC (setting [1]), -9.81 (± 0.4) kcal/mol; on EcwtSC (setting [2]) it was -15.3 (± 0.1) kcal/mol; at EcwtSC (setting [4]) it was -11.7 (± 0.6) kcal/mol; on EcwtSC (setting [5]) it was -14.8 (± 0.8) kcal/mol. Besides, the Kd at EcwtSC (setting [6]) stood at 212 nM; on EcwtSC (read-out: KD (nM) at 37 °C (AcONH4 buffer), Table 7, 37 °C, AcONH4 buffer) it was 475 ± 47 nM.
